Test results: patent US20240024216A1, “METHODS AND MATERIALS FOR TREATING HAIR LOSS” (The Penn State Research Foundation, priority 2021, published 2024)

Tests used:
[1] = system: C57BL/6 mice; experiment: Full thickness excisional splinted wound model: wound closure and histomorphometry; assay type: in vivo; settings: for wound closure: daily systemic 4-AP
Text: The effect of 4-AP in promoting cutaneous wound healing and tissue regeneration was investigated using a full thickness excisional wound model (FIG. 3A). Excisional wounds (5 mm) were splinted with silicone rings to prevent wound contraction, in 10-wk-old male C57BL/6 mice, which were then randomized and treated with either saline or systemic 4-AP (dosage to correspond to human dosage) daily for 14 days. Wounds were monitored by digital imaging for morphometry, percentage of wound healing, and tissue regeneration on days 3, 5, 7, 9, 12 and 14 post wound (PWD) (when tissue was harvested).
Male C57BL/6 (10 week) mice were purchased from the Jackson Laboratory (Bar Harbor, ME USA). Mice were anesthetized by intraperitoneal injection of ketamine (60 mg/kg) and xylazine (4 mg/kg) body weight, and the dorsal skin hair was removed using mechanical shaver and then, applied the hair removal cream. Skin was disinfected using 70% ethanol and betadine for 3 times. The dorsal skin was folded and raised cranially and caudally at midline using index fingers and thumbs, and place the animal in a lateral position and two 5-mm wounds created in their dorsal skin using sterile biopsy punch. A 5-mm-diameter silicone ring was then placed and sutured around the each wound to restrict contraction. After wound creation and sutured silicone ring, wound site was photographed, and wound surface was covered with a Tegaderm (3M) sterile transparent dressing. After surgery, mice was administered SR Buprenorphine (0.05 mg/kg) as a post-operative analgesia. The mice were randomized into the following two groups: a control group (vehicle control), which received 100 μl of saline, and a 4-AP group. In total […]/mouse/daily 4-AP in 90-110 μl of saline intraperitoneally (IP) was administered until day 14 post wound. Digital imaging of the wound was used was determined for each wound healing by quantification of wound area based on digital pictures taken from day 0 to day 14 (days 0, 3, 5, 7, 9, 12 and 14) post-surgery (FIG. 3A). Wound areas were measured in pixel using ImageJ-1.53e software (National Institutes of Health, USA) and normalized/corrected each wound area with reference scale and wound healing expressed as percentage with respect to day 0 wound, using following formula.
At the day 14 wound skin sample were collected after mice were euthanized using CO2 and skin samples were excised, either flash frozen or fixed in a buffered 4% formaldehyde solution at 4° C., overnight for samples to be embedded in paraffin and the wound skin paraffin blocks were processed into serially cut into […] sections on a Microtome (Leica RM2235, Germany). The wound skin sections were used for morphometric analysis and immunofluorescence staining. […] sectioned wound skin samples of day 14 were sections were deparaffinised using xylene and ethyl alcohol and stained with hematoxylin and eosin (H&E). To evaluate the epidermis thickness, and wound induced hair follicle formation, four randomly fields of each H&E-stained sections were imaged under a light microscope (Olympus BX53, Olympus, Tokyo, Japan) at 1000 magnification. The values of each mice were averaged, and then groups were compared. To measure the wound induced hair follicles, similar to above procedure, the number of hair follicles at dermis were counted and then average value calculated for each group. To understand the collagen formation, maturation and deposition Masson's trichome analysis were performed as per manufacture instructions (Sigma-Aldrich, Catalog No.: HT15-1KT).

[2] = system: keratinocytes, Schwann cells and fibroblast; experiment: Cell viability MTT assay; assay type: cell-based, human; settings: concentrations of 4-AP used in vitro; 24 hours
Procedure: The keratinocytes, Schwann cells and fibroblast were culture on 96-well plates, the wells were pre-coated with respective coating matrix in complete growth medium and incubated cells for 12-18 hours at 37° C. in 5% CO2 incubator. Cells were washed with PBS and added basal Schwann cells/fibroblast/keratinocytes medium to starve, then incubated for 4 hours at 37° C. with 5% CO2. After the incubation period, various concentrations of 4-AP (concentrations ranging from 1 to 10000 μM) in 100 μL containing respective medium's (complete keratinocytes, Schwann cells and fibroblast medium), cells were incubated either 24 hours at +37° C. and 5% CO2 incubator. After completion of incubation time, 10 μL of the MTT labeling reagent (final concentration 0.5 mg/ml) was added to each well and incubate at +37° C. for 4 hours in a humidified atmosphere. Then, 100 μL of the solubilization solution into each well and allow the plate to stand in the incubator overnight or until the formazan crystals had dissolved. […] The formazan absorbance was read using wavelength of 550 nm in a plate reader. The color of optical density (OD) is directly propositional to number of live cells. The percentage of live keratinocytes/Schwann cells/fibroblast cells was determined using the following formula. […]

[3] = system: human foreskin dermal primary fibroblast; experiment: Scratch wound healing migration assay, primary dermal fibroblasts; assay type: cell-based

Nc1ccncc1 [4-AP, 4-aminopyridine]
re-epithelialization of wound ([1]; by day 14): completely re-epithelialized | wound closure ([1]; day 3 post wound): 22.35±0.30% | collagen deposition in dermis (Masson's Trichrome) ([1]; day 14, compared to saline): elevated collagen deposition | fold increase in WIHN ([1]; day 14, vs saline-treated mice): 1.8 fold | wound closure ([1]; day 14 post wound): 98.24±0.10% | thickness of newly formed epidermis (H&E) ([1]; day 14 wound tissue): 29.7 ± 1.3 µm | mean number of hair follicles (wound-induced hair neogenesis) ([1]; day 14 wound tissue, H&E): 45 | cell viability [2]: not affected | fibroblast migration ([3]; 1 mM 4-AP vs no treatment): unaffected | vimentin and α-SMA protein expression (fibroblast to myofibroblast conversion) ([3]; 4-AP exposed vs no treatment): increased
